Key:
[1] = target: hKv1.5 (Homo sapiens, UniProt P22460); assay: Kv1.5 Autopatch electrophysiology (whole cell patch-clamp); assay type: cell-based; conditions: compound at 1 μM; room temperature (22-24° C.); total charge during step to 0 mV; read-out: hKv1.5 % inh.
Description: Kv1.5 Autopatch Electrophysiology Method
The external bathing solution contained (in mM): 150 NaCl, 10 KCl, […], 3 MgCl2, 1 CaCl2, 10 HEPES, pH 7.4. Patch pipettes were filled with an electrode solution of composition (in mM): 160 KCl, 0.5 MgCl2, 10 HEPES, 1 EGTA, pH 7.4 with KOH.
Compounds were dissolved in DMSO (100%) and made up in the external bather at a concentration of 1 μM. All experiments were conducted at room temperature (22-24° C.).
A cell suspension (10 ml), with a density of 100,000 cells/ml, was aliquoted into a 15 ml centrifuge tube and transferred to an incubator (37° C., 5% CO2) for approximately one hour before use. Following 60 min incubation, a tube was taken and centrifuged at 1000 rpm for 4 mins at room temperature. 9.5 ml supernatant was thence discarded, leaving a cell pellet at the bottom of the tube. The pellet was then resuspended using 100 μl of cold (4° C.), filtered (0.22 μm), 0.2% BSA/bather solution (0.02 g BSA/10 ml bather). The bottom of the tube was manually agitated gently until the solution became cloudy with cells. The 100 μl cell resuspension solution was then stored on the bench at 4° C. (using a Peltier-based temperature control device) until used.
A length of capillary glass (1B150F-4, WPI) was dipped into the cell suspension solution, such that ˜3 cm column of fluid was taken up by capillary action. A Ag/AgCl wire was dropped into the non-dipped end of the capillary also. The outside of the solution-filled end of the capillary was then dried and the capillary was loaded into the AutoPatch™.
(§1) Borosilicate glass patch pipettes (from 1.5 mm OD, thin-walled filamented, GC150-TF capillary glass, Harvard) were pulled using a DMZ pipette puller (Zeitz Instruments), and were back-filled using the internal pipette solution, being careful that no bubbles remain at the tip or in the body of the pipette. Patch pipettes typically had resistances of 2.3-3.5 MΩ. Once filled, the pipette tip and a proportion of the shaft (˜15 mm) were dipped into Sigmacote (Sigma). The recording pipette was then loaded into the AutoPatch™ Automated patch-clamping was initiated by the operator, but thereafter AutoPatch.exe continued the experiment providing that pre-set conditions and criteria were satisfied.
Whole cell patch-clamp recordings were made using the AutoPatch™ rig, which incorporated an EPC9 amplifier (HEKA, Germany) under control of Pulse software (v8.54, HEKA, Germany), a motion controller with 2 translators (Newport, UK), valve controller (VF1) and a c-level suction device all at room temperature (22-24° C.). This equipment was completely under the control of AutoPatch.exe and operator intervention was only made when there was a requirement to refill the drug reservoirs or to prevent the loss of a cell due to a technical error. Cells with an Rseries greater than 18 MΩ were discounted from the experiment.
Qualification stages prior to perfusion and drug application ensured that the observed current met the criteria for the experiment. Only those cells with an IK>500 pA were used for experiments. Cells were continuously perfused with external solution at a flow rate of 1.8-2 ml/minute. […] Online analysis of the hKv1.5 current during the application of compounds was performed by the AutoPatch™ software. Voltage-step protocols and analysis of data was performed as described for conventional electrophysiology.
Electrophysiology voltage-step protocols and analysis of data was performed as follows. Data was sampled at 5 kHz, and filtered with a −3 dB bandwidth of 2.5 kHz. Cells were held at a voltage of −80 mV. Currents were evoked to a voltage step for 1000 ms in duration at 0 mV every 5 s. Currents were analysed using Pulsefit software (v8.54, HEKA, Germany), with the total charge measured during the whole of the voltage step. All other plots were produced using Igor Pro (WaveMetrics).

[2] = target: T1, human Kv1.3 (Homo sapiens, UniProt P22001); assay: Kv1.3 Autopatch electrophysiology (whole cell patch-clamp, inhibition of charge movement); assay type: cell-based; conditions: compound at 1 μM; cells stably transfected with human Kv1.3; room temperature; total charge during step to +30 mV relative to control; read-out: hKv1.3 % inh.
T1 construct: expressed in transfected cells; host or cells: stably transfected cells grown in medium for CHO cells
Description: Kv1.3 Autopatch Electrophysiology Method
Compounds were tested on these cells using the AutoPatch technology in whole cell mode.
The external bathing solution contained (in mM): 150 NaCl, 10 KCl, 1 MgCl2, 3 CaCl2, 10 HEPES, pH 7.4 with NaOH. Patch pipettes were filled with an electrode solution of composition (in mM): 100 K-Gluconate, 20 KCl, 1 MgCl2, 1 CaCl2, 10 HEPES, 11 EGTA, 5 ATP-Na2, 2 Glutathione pH 7.2 with KOH.
Compounds were dissolved in DMSO (100%) and made up in the external bather at a concentration of 1 μM immediately prior to use. All experiments were conducted at room temperature.
A cell suspension (10 ml), with a density of 6×10^6 cells, was aliquoted into a 15 ml centrifuge tube and stored at 4° C. before use. Prior to use a tube was taken and centrifuged at 1000 rpm for 4 mins at room temperature. The supernatant was then discarded, leaving a cell pellet at the bottom of the tube. The pellet was then resuspended using 1 ml of cold (4° C.), filtered (0.22 μm), 0.05% BSA/bather solution (0.05 g BSA/100 ml bather). The bottom of the tube was manually agitated followed by gentle tituration. The cell suspension was then placed in the AutoPatch™ temperature controlled cell-hotel at 14° C. and regularly titurated.
as §1, with “A length of Teflon capillary tubing was dipped into the cell suspension solution, and a column of fluid was taken up by negative pressure. The column of fluid was in electrically connectivity with a Ag/AgCl reference electrode. Borosilicate” for “Borosilicate”, “remained” for “remain”, “2.5-3.5” for “2.3-3.5”, “pipettes were placed in a multiwell array and mounted on” for “pipette was then loaded into”, “AutoPatch™ machine.” for “AutoPatch™”, “patch-clamping and drug-application” for “patch-clamping”
Whole cell patch-clamp recordings were made using the AutoPatch™ rig, which incorporated an EPC9 or EPC10 amplifier (HEKA, Germany) under control of Pulse software (v8.54 or v8.76, HEKA, Germany), a cell applicator, automated drug application system (DAS), valve controller (VF1) and a suction device all at room temperature. This equipment was completely under the control of AutoPatch.exe and operator intervention was only made when there was a requirement to refill the bather reservoirs or to prevent the loss of a cell due to a technical error.
Cells were continuously perfused with external solution at a flow rate of ˜2 ml/minute.
Electrophysiology voltage-step protocols and analysis of data was performed as follows. Data were sampled at 5 kHz, and filtered with a −3 dB bandwidth of 2.5 kHz. Cells were held at a voltage of −80 mV. Currents were evoked by a voltage step to +30 mV for 500 ms in duration applied every 15 s. Online analysis of the hKv1.3 current during the application of compounds was performed by the Pulse (v8.54 or v8.76, HEKA, Germany), Excel (Microsoft, USA) and AutoPatch™ software, with the total charge measured during the whole of voltage step. Inhibition of charge movement in the presence of drug was calculated relative to control.

hKv1.5, sequence (P22460 whole entry): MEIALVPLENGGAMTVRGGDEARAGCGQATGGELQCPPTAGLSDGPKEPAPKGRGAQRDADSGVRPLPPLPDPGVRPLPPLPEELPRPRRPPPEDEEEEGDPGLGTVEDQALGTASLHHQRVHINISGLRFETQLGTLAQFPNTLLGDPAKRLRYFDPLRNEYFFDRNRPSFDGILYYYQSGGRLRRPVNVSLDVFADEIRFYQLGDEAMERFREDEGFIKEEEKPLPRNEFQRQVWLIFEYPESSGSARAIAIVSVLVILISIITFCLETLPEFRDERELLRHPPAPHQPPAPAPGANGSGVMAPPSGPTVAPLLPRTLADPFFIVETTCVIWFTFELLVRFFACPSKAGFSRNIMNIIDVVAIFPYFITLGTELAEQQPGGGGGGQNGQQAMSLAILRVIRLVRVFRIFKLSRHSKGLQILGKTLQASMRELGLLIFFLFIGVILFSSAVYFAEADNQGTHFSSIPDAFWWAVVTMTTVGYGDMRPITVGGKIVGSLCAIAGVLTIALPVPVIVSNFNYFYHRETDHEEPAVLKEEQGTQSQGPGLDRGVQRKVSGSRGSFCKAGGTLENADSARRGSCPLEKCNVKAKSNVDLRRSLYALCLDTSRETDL
T1 sequence (P22001 whole entry): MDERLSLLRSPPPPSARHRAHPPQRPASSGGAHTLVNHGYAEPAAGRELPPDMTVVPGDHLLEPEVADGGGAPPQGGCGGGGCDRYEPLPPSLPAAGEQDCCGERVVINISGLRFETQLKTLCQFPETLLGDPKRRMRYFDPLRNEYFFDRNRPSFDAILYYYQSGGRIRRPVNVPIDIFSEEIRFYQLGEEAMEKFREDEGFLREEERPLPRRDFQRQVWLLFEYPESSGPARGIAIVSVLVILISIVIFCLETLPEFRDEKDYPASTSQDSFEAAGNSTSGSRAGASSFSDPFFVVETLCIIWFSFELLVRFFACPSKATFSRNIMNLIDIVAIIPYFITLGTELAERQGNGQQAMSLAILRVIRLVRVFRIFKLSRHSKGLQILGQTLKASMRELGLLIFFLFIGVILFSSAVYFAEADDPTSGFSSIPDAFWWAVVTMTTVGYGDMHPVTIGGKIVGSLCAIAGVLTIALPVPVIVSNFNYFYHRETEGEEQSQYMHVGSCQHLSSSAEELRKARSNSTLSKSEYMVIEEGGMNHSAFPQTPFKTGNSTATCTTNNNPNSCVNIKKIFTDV

Structure (SMILES) | inhibition at 1 µM [1] [%] | inhibition at 1 µM [2] [%]
O=C(c1ccc(N(Cc2ccc(Cl)cc2)S(=O)(=O)c2ccccc2)cc1)N1CCN(c2ccccc2)CC1 [Example 1, N-(4-Chloro-benzyl)-N-[4-(4-phenyl-piperazine-1-carbonyl)-phenyl]-benzenesulfonamide] | 94 | 91
Cn1cnc(S(=O)(=O)N(Cc2ccccc2)c2ccc(CN3CCN(c4ccccc4)CC3)cc2)c1 [Example 8, 1-Methyl-1H-imidazole-4-sulfonic acid benzyl-[4-(4-phenyl-piperazin-1-ylmethyl)-phenyl]-amide] | 56.7 | 90
O=C(c1ccc(N(Cc2ccccc2)S(=O)(=O)c2ccccc2)cc1)N1CCN(c2ccccc2)CC1 [Example 9, N-Benzyl-N-[4-(4-phenyl-piperazine-1-carbonyl)-phenyl]-benzenesulfonamide] | 64.5 | 99
O=C(c1ccc(N(Cc2ccccc2Cl)S(=O)(=O)c2ccccc2)cc1)N1CCN(c2ccccc2)CC1 [Example 10, N-(2-Chloro-benzyl)-N-[4-(4-phenyl-piperazine-1-carbonyl)-phenyl]-benzenesulfonamide] | 47.9 | 86
O=C(c1ccc(N(Cc2cccc(Cl)c2)S(=O)(=O)c2ccccc2)cc1)N1CCN(c2ccccc2)CC1 [Example 11, N-(3-Chloro-benzyl)-N-[4-(4-phenyl-piperazine-1-carbonyl)-phenyl]-benzenesulfonamide] | 73.6 | 92
O=C(c1ccc(N(Cc2ccc(F)cc2)S(=O)(=O)c2ccccc2)cc1)N1CCN(c2ccccc2)CC1 [Example 12, N-(4-Fluoro-benzyl)-N-[4-(4-phenyl-piperazine-1-carbonyl)-phenyl]-benzenesulfonamide] | 56.3 | 93
COc1ccc(S(=O)(=O)N(Cc2ccccc2)c2ccc(C(=O)N3CCN(c4ccccc4)CC3)cc2)cc1OC [Example 14, N-Benzyl-3,4-dimethoxy-N-[4-(4-phenyl-piperazine-1-carbonyl)-phenyl]-benzenesulfonamide] | 61.3 | 69
O=C(c1ccc(N(Cc2ccccc2)S(=O)(=O)c2ccc3c(c2)OCCO3)cc1)N1CCN(c2ccccc2)CC1 [Example 15, 2,3-Dihydro-benzo[1,4]dioxine-6-sulfonic acid benzyl-[4-(4-phenyl-piperazine-1-carbonyl)-phenyl]-amide] | 80.4 | 66
Cc1ccc(S(=O)(=O)N(Cc2ccccc2)c2ccc(C(=O)N3CCN(c4ccccc4)CC3)cc2)cc1 [Example 16, N-Benzyl-4-methyl-N-[4-(4-phenyl-piperazine-1-carbonyl)-phenyl]-benzenesulfonamide] | 48.1 | 77
O=C(c1ccc(N(Cc2ccccc2)S(=O)(=O)c2cccs2)cc1)N1CCN(c2ccccc2)CC1 [Example 17, Thiophene-2-sulfonic acid benzyl-[4-(4-phenyl-piperazine-1-carbonyl)-phenyl]-amide] | 47.3 | 34
O=C(c1ccc(N(Cc2ccccc2)S(=O)(=O)c2ccsc2)cc1)N1CCN(c2ccccc2)CC1 [Example 18, Thiophene-3-sulfonic acid benzyl-[4-(4-phenyl-piperazine-1-carbonyl)-phenyl]-amide] | 82.9 | 80
O=C(c1ccc(N(Cc2ccccc2)S(=O)(=O)c2ccc(F)cc2)cc1)N1CCN(c2ccccc2)CC1 [Example 19, N-Benzyl-4-fluoro-N-[4-(4-phenyl-piperazine-1-carbonyl)-phenyl]-benzenesulfonamide] | 54.6 | 83
O=C(c1ccc(N(Cc2ccccc2)S(=O)(=O)c2ccccc2F)cc1)N1CCN(c2ccccc2)CC1 [Example 20, N-Benzyl-2-fluoro-N-[4-(4-phenyl-piperazine-1-carbonyl)-phenyl]-benzenesulfonamide] | 88.8 | 82
O=C(c1ccc(N(Cc2ccccc2)S(=O)(=O)c2cccc(F)c2)cc1)N1CCN(c2ccccc2)CC1 [Example 21, N-Benzyl-3-fluoro-N-[4-(4-phenyl-piperazine-1-carbonyl)-phenyl]-benzenesulfonamide] | 70.9 | 70
N#Cc1cccc(S(=O)(=O)N(Cc2ccccc2)c2ccc(C(=O)N3CCN(c4ccccc4)CC3)cc2)c1 [Example 23, N-Benzyl-3-cyano-N-[4-(4-phenyl-piperazine-1-carbonyl)-phenyl]-benzenesulfonamide] | 93.1 | 79
N#Cc1ccccc1S(=O)(=O)N(Cc1ccccc1)c1ccc(C(=O)N2CCN(c3ccccc3)CC2)cc1 [Example 24, N-Benzyl-2-cyano-N-[4-(4-phenyl-piperazine-1-carbonyl)-phenyl]-benzenesulfonamide] | 71.9 | 84
Cn1cnc(S(=O)(=O)N(Cc2ccccc2)c2ccc(C(=O)N3CCN(c4ccccc4)CC3)cc2)c1 [Example 25, 1-Methyl-1H-imidazole-4-sulfonic acid benzyl-[4-(4-phenyl-piperazine-1-carbonyl)-phenyl]-amide] | 58.8 | 68

From patent US8258138B2, “Potassium channel blockers” (Xention Limited, priority 2008, dated 2012)
